{"source": "patent US20250257071A9", "about": "“TRICYCLIC COMPOUND, METHOD FOR PREPARING SAME, AND USE THEREOF” (Sichuan Kelun-Biotech Biopharmaceutical Co., Ltd., priority 2021, published 2025)", "key": {"human TLR8": {"biological_target": "human TLR8 (Homo sapiens (Human), UniProt Q9NR97)", "sequence (Q9NR97 27-1041)": "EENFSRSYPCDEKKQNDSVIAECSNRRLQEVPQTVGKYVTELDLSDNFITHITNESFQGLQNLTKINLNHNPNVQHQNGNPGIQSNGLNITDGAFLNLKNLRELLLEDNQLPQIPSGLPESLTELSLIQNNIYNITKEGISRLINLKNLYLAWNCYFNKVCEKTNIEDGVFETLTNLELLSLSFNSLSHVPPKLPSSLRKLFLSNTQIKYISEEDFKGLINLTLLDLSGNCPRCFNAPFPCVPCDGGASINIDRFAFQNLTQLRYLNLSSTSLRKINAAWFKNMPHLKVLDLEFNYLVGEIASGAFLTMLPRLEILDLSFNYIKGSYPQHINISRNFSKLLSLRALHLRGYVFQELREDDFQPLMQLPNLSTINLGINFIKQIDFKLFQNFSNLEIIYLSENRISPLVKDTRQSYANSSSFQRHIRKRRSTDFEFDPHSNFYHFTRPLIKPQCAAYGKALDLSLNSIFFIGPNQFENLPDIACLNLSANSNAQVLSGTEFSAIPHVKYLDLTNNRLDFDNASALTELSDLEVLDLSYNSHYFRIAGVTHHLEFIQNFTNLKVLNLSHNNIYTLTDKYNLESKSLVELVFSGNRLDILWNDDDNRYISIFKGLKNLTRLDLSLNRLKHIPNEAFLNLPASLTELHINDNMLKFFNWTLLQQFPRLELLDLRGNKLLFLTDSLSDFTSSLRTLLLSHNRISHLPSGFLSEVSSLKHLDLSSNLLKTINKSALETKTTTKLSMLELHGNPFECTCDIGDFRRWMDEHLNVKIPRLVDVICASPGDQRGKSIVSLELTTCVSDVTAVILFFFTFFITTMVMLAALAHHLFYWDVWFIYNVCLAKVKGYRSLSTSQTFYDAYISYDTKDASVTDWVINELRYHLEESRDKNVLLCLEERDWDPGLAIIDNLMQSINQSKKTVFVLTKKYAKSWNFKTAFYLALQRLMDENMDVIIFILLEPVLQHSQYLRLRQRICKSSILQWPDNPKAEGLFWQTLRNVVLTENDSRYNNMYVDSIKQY", "test": "Agonistic activity of compounds on HEK-Blue hTLR8 cells (QUANTI-Blue reporter, OD620)", "type": "cell-based", "settings": "for Emax (OD620): OD620 at maximum activation effect", "method": "• 1. HEK-Blue hTLR8 cells (Invivogen) were cultured in DMEM medium (Hyclone) containing 10% FBS heat-inactivated fetal bovine serum (Corning). On the day of detection, the cell state was observed under a microscope, the cells were collected and resuspended, and the cell concentration was adjusted after counting, 50 μL per well, the total amount of cells was 2×10^4, and the cells were inoculated in a 96-well plate. • 2. After the cells adhered to the wall overnight, 50 μL of the test compound at different concentrations was added to the well plate, so that the final concentrations were 100 μM, 25 μM, 6.25 μM, 1.56 μM, 0.39 μM, 0.10 μM, 0.02 μM, 0.006 μM, 0 μM, or 100 μM, 33.3 μM, 11.11 μM, 3.70 μM, 1.23 μM, 0.41 μM, 0.14 μM, 0.05 μM, 0 μM, and the final concentration of DMSO was 1%. The compound was incubated with the cells in a 37° C., 5% CO2 incubator for 20 hours. • 3. After the incubation, observation was performed under microscope to determine the maximum signal well, the state of the cells with the highest and lowest concentrations of the compound, and whether the compound will crystalize at high concentration. 10 μL of cell culture supernatant was transferred to a new 96-well transparent plate, added with 90 μL of QUANTI-Blue (Invivogen) detection reagent to each well, incubated at 37° C. for 3 hours, and OD620 was read with a multifunctional microplate reader (BMG LABTECH). • 4. EC50 was calculated by fitting with Graphpad Prism software log(agonist) vs. Response—Variable slope, and Emax was the OD620 at which the activation effect of the test compound reached the maximum."}, "human TLR7": {"biological_target": "human TLR7 (Homo sapiens (Human), UniProt Q9NYK1)", "sequence (Q9NYK1 27-1049)": "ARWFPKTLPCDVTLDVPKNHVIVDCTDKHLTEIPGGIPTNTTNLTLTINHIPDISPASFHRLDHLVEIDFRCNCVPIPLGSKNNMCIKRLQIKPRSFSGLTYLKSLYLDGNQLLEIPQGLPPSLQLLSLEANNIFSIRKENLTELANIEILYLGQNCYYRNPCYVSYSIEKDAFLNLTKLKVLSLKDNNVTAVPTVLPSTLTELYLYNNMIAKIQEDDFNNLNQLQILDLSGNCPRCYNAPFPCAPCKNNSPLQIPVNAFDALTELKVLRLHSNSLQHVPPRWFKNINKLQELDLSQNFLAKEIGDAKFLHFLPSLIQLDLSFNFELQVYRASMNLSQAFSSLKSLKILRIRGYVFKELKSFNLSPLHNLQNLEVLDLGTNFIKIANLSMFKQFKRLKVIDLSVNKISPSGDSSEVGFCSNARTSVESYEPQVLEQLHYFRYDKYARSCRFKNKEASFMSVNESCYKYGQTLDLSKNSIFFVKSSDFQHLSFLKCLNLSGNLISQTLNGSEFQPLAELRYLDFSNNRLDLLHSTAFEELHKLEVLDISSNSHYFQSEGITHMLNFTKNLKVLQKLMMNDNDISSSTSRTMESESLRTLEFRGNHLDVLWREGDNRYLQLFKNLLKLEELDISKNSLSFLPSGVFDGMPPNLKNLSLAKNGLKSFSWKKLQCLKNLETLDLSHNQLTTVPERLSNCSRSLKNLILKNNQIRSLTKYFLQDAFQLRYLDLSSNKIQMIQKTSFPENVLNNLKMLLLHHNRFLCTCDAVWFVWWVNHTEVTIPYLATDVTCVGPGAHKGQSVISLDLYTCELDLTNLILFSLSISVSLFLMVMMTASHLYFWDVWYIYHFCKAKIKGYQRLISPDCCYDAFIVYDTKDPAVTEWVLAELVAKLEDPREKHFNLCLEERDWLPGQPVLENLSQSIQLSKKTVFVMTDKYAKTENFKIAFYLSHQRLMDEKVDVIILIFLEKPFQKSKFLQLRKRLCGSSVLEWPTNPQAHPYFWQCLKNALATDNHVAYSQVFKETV", "test": "Agonistic activity of compounds on HEK-Blue hTLR7 cells (QUANTI-Blue reporter, OD620)", "type": "cell-based", "settings": "for Emax (OD620): OD620 at maximum activation effect", "method": "• 1. HEK-Blue hTLR7 cells (Invivogen) were cultured in DMEM medium (Hyclone) containing 10% FBS heat-inactivated fetal bovine serum (Corning). On the day of detection, the cell state was observed under a microscope, the cells were collected and resuspended, and the cell concentration was adjusted after counting, 50 μL per well, the total amount of cells was 2×10^4, and the cells were inoculated in a 96-well plate. • 2. After the cells adhered to the wall overnight, 50 μL of the test compound at different concentrations was added into the well plate, so that the final concentrations were 100 μM, 33.3 μM, 11.11 μM, 3.70 μM, 1.23 μM, 0.41 μM, 0.14 μM, 0.05 μM, 0 μM, and the final concentration of DMSO was 1%. The compound was incubated with the cells in a 37° C., 5% CO2 incubator for 20 h. • 3. After the incubation, observation under microscope was performed to determine the maximum signal well, the states of the cells with the highest and lowest concentrations of the compound, and whether the compound will crystalize at high concentration. 10 μL of cell culture supermatant was taken and transferred to a new 96-well transparent plate, 90 μL of QUANTI-Blue (Invivogen) detection reagent was added to each well, and incubated at 37° C. for 3 h, and OD620 was read with a multifunctional microplate reader (BMG LABTECH). • 4. EC50 was calculated by fitting with Graphpad Prism software log(agonist) vs. response—Variable slope, and Emax was the (D620 at which the activation effect of the test compound reached the maximum."}}}
{"smiles": "CCCCc1nc2c(N)nc3cc(C)sc3c2n1CCCCN", "note": "[Compound 1, 1-(4-aminobutyl)-2-butyl-7-methyl-1H-imidazo[4,5-d]thieno[3,2-b]pyridine-4-amine]", "values": [{"measurement": "activation effect on human TLR8 (in words)", "setting": "human TLR8", "result": "strong activation effect"}, {"measurement": "Emax (OD620)", "setting": "human TLR8", "result": 1.43, "unit": "OD620"}, {"measurement": "activation effect on human TLR7 (in words)", "setting": "human TLR7", "result": "strong activation effect"}, {"measurement": "Emax (OD620)", "setting": "human TLR7", "result": 1.36, "unit": "OD620"}]}
{"smiles": "CCCCc1nc2c(N)nc3ccsc3c2n1CCCCN", "note": "[Compound 2, 1-(4-aminobutyl)-2-butyl-1H-imidazo[4,5-d]thieno[3,2-b]pyridine-4-amine]", "values": [{"measurement": "activation effect on human TLR8 (in words)", "setting": "human TLR8", "result": "strong activation effect"}, {"measurement": "Emax (OD620)", "setting": "human TLR8", "result": 1.37, "unit": "OD620"}, {"measurement": "activation effect on human TLR7 (in words)", "setting": "human TLR7", "result": "strong activation effect"}, {"measurement": "Emax (OD620)", "setting": "human TLR7", "result": 1.36, "unit": "OD620"}]}
{"smiles": "CCCCc1nc2c(N)nc3cc(C4CCNCC4)sc3c2n1CC1CCOCC1", "note": "[Compound 33, 2-butyl-7-(hexahydropyridin-4-yl)-1-(3,4,5,6-tetrahydro-2H-pyran-4-ylmethyl)thieno[3,2-b]imidazo[4,5-d]pyridine-4-amine]", "values": [{"measurement": "activation effect on human TLR8 (in words)", "setting": "human TLR8", "result": "strong activation effect"}, {"measurement": "Emax (OD620)", "setting": "human TLR8", "result": 0.67, "unit": "OD620"}, {"measurement": "activation effect on human TLR7 (in words)", "setting": "human TLR7", "result": "strong activation effect"}, {"measurement": "Emax (OD620)", "setting": "human TLR7", "result": 1.46, "unit": "OD620"}]}
{"smiles": "CCCCc1nc2c(N)nc3cc(C)sc3c2n1CC1CCNCC1", "note": "[Compound 3, 2-butyl-7-methyl-1-(piperidin-4-ylmethyl)-1H-imidazo[4,5-d]thieno[3,2-b]pyridine-4-amine]", "values": [{"measurement": "activation effect on human TLR8 (in words)", "setting": "human TLR8", "result": "strong activation effect"}, {"measurement": "Emax (OD620)", "setting": "human TLR8", "result": 1.86, "unit": "OD620"}, {"measurement": "activation effect on human TLR7 (in words)", "setting": "human TLR7", "result": "strong activation effect"}, {"measurement": "Emax (OD620)", "setting": "human TLR7", "result": 1.43, "unit": "OD620"}]}
{"smiles": "CCCCc1nc2c(N)nc3cc(C4CCN(C)CC4)sc3c2[nH]1", "note": "[Compound 6, 2-butyl-7-(1-methylpiperidin-4-yl)-1H-imidazo[4,5-d]thieno[3,2-b]pyridine-4-amine]", "values": [{"measurement": "activation effect on human TLR8 (in words)", "setting": "human TLR8", "result": "strong activation effect"}, {"measurement": "Emax (OD620)", "setting": "human TLR8", "result": 1.11, "unit": "OD620"}, {"measurement": "activation effect on human TLR7 (in words)", "setting": "human TLR7", "result": "strong activation effect"}, {"measurement": "Emax (OD620)", "setting": "human TLR7", "result": 1.08, "unit": "OD620"}]}
{"smiles": "CCCCc1nc2c(N)nc3ccsc3c2n1CC1CCN(C)CC1", "note": "[Compound 27, 2-butyl-1-[(1-methylhexahydropyridin-4-yl)methyl]thieno[3,2-b]imidazo[4,5-d]pyridine-4-amine]", "values": [{"measurement": "activation effect on human TLR8 (in words)", "setting": "human TLR8", "result": "strong activation effect"}, {"measurement": "Emax (OD620)", "setting": "human TLR8", "result": 0.84, "unit": "OD620"}, {"measurement": "activation effect on human TLR7 (in words)", "setting": "human TLR7", "result": "strong activation effect"}, {"measurement": "Emax (OD620)", "setting": "human TLR7", "result": 1.59, "unit": "OD620"}]}
